# Data published in ChEMBL document CHEMBL5143506, “Design, synthesis, and mechanism study of dimerized phenylalanine derivatives as novel HIV-1 capsid inhibitors” (Eur J Med Chem, 2021).
# Assays:
# [1] = system: Human immunodeficiency virus 1; test: Antiviral activity against wild type HIV-1 IIIB infected in human MT4 cells assessed as protection against virus-induced cytopathic effect measured after 5 days by MTT assay; format: functional, organism-based; conditions: Human immunodeficiency virus 1, IIIB, MT4, 120 h
# [2] = (§1) Cytotoxicity against human MT4 cells assessed as reduction in cell viability incubated for 5 days by MTT assay; conditions: MT4 cells
# in vitro [3] = conditions: human, MT4 cells
# Description: Selectivity index, ratio of CC50 for cytotoxicity against human MT4 cells to EC50 for antiviral activity against HIV-1 IIIB infected in human MT4 cells
# MT4 = test: as §1; conditions: mt4, 120 h
# [4] = human, microsomes, 3 h, 100 µM
# [5] = human, microsomes, 3 h, 100 µM; remark: listed apart in the source
# in vitro [6] = conditions: human, liver microsomes
# Description: Metabolic stability in human liver microsome assessed as parent compound remaining at 100 uM measured after 60 mins in presence of NADPH by LC-MS/MS analysis
# in vitro [7] = conditions: human, liver microsomes; remark: listed apart in the source
# Description: Metabolic stability in human liver microsome assessed as parent compound remaining at 100 uM measured after 60 mins by LC-MS/MS analysis
# in vitro [8] = conditions: human, liver microsomes; remark: listed apart in the source
# in vitro [9] = conditions: human, MT4 cells; remark: listed apart in the source
# Description: Selectivity index, ratio of CC50 for cytotoxicity against human MT4 cells to EC50 for antiviral activity against HIV-1 ROD infected in human MT4 cells
# [10] = system: Human immunodeficiency virus 1; test: Antiviral activity against HIV1 NL4-3 Env-deficient pseudotype virus infected in human U87.CD4.CCR5.CXCR4 cells assessed by reduction in viral infection in early stage at 1 uM measured after 48 hrs by luciferase activity based single-round infection assay; format: functional; parameters: scale not given: the % may be the effect or the level left
# [11] = system: Human immunodeficiency virus 1; test: Antiviral activity against HIV1 NL4-3 Env-deficient pseudotype virus infected in human U87.CD4.CCR5.CXCR4 cells assessed by reduction in viral infection in late stage at 1 uM measured after 48 hrs by luciferase activity based single-round infection assay; format: functional; parameters: scale not given: the % may be the effect or the level left
# [12] = system: Human immunodeficiency virus 1; test: Antiviral activity against HIV1 NL4-3 Env-deficient pseudotype virus infected in human U87.CD4.CCR5.CXCR4 cells assessed by reduction in viral infection in early stage at 5 uM measured after 48 hrs by luciferase activity based single-round infection assay; format: functional; parameters: scale not given: the % may be the effect or the level left
# [13] = system: Human immunodeficiency virus 1; test: Antiviral activity against HIV1 NL4-3 Env-deficient pseudotype virus infected in human U87.CD4.CCR5.CXCR4 cells assessed by reduction in viral infection in late stage at 5 uM measured after 48 hrs by luciferase activity based single-round infection assay; format: functional; parameters: scale not given: the % may be the effect or the level left
Structure (SMILES),EC50 [1],selectivity ratio (in vitro [3]),CC50 (MT4),further results
COc1ccc(N(C)C(=O)[C@H](Cc2ccccc2)NC(=O)CN2CC(=O)N(CC(=O)N[C@@H](Cc3ccccc3)C(=O)N(C)c3ccc(OC)cc3)CC2=O)cc1,3.59 µM,6.82,–,CC50 at 120 h [2]: 24.5 µM
CN(C(=O)[C@H](Cc1ccccc1)NC(=O)CN1CCNCC1=O)c1ccccc1,247 µM,–,–,CC50 at 120 h [2]: > 317 µM
COc1ccc(N(C)C(=O)[C@H](Cc2cc(F)cc(F)c2)NC(=O)CN2CCN(CC(=O)N[C@@H](Cc3ccccc3)C(=O)N(C)c3ccccc3)CC2=O)cc1,2.84 µM,6.15,17.5 µM,–
COc1ccc(N(C)C(=O)[C@H](Cc2cc(F)cc(F)c2)NC(=O)CN2CC(=O)N(CC(=O)N[C@@H](Cc3cc(F)cc(F)c3)C(=O)N(C)c3ccc(OC)cc3)CC2=O)cc1,0.69 µM,–,13.3 µM,"t1/2 [4]: 96 s; CLH [5]: 843.9 µL/min/mg; remaining at 1 h, 100 µM (in vitro [6]): 0%; remaining at 1 h, 100 µM (in vitro [7]): 105%"
COc1ccc(N(C)C(=O)[C@H](Cc2cc(F)cc(F)c2)NC(=O)CN2CCN(CC(=O)N[C@@H](Cc3ccccc3)C(=O)N(C)c3ccccc3)C(=O)C2)cc1,4.19 µM,3.05,12.8 µM,–
Cc1[nH]c2ccccc2c1CC(=O)N[C@@H](Cc1ccccc1)C(=O)N(C)c1ccccc1,–,–,–,"half-life at 3 h, 100 µM (in vitro [8]): 30 s"
COc1ccc(N(C)C(=O)[C@H](Cc2ccccc2)NC(=O)CN2CCNCC2=O)cc1,89.2 µM,–,> 294 µM,–
COc1ccc(N(C)C(=O)[C@H](Cc2ccccc2)NC(=O)CN2CCN(CC(=O)N[C@@H](Cc3ccccc3)C(=O)N(C)c3ccccc3)CC2=O)cc1,> 32.4 µM,–,32.4 µM,–
CN(C(=O)[C@H](Cc1ccccc1)NC(=O)CN1CC(=O)N(CC(=O)N[C@@H](Cc2ccccc2)C(=O)N(C)c2ccccc2)CC1=O)c1ccccc1,4.24 µM,16.9,71.8 µM,selectivity ratio (in vitro [9]): 2.41
COc1ccc(N(C)C(=O)[C@H](Cc2ccccc2)NC(=O)CN2CCN(CC(=O)N[C@@H](Cc3cc(F)cc(F)c3)C(=O)N(C)c3ccc(OC)cc3)C(=O)C2)cc1,2.52 µM,6.14,15.5 µM,–
COc1ccc(N(C)C(=O)[C@H](Cc2cc(F)cc(F)c2)NC(=O)CN2CCNCC2=O)cc1,31.1 µM,–,> 272 µM,–
COc1ccc(N(C)C(=O)[C@H](Cc2ccccc2)NC(=O)CN2CCN(S(=O)(=O)c3ccc(N)cc3)CC2=O)cc1,0.16 µM,–,119 µM,"Activity [10]: 7.1%; Activity [11]: 55%; CLH [5]: 395.6 µL/min/mg; remaining at 1 h, 100 µM (in vitro [6]): 0.1%; remaining at 1 h, 100 µM (in vitro [7]): 106%"
COc1ccc(N(C)C(=O)[C@H](Cc2ccccc2)NC(=O)CN2CCN(CC(=O)N[C@@H](Cc3ccccc3)C(=O)N(C)c3ccc(OC)cc3)C(=O)C2)cc1,≥ 3.67 µM,–,15.7 µM,–
COc1ccc(N(C)C(=O)[C@H](Cc2cc(F)cc(F)c2)NC(=O)CN2CCN(CC(=O)N[C@@H](Cc3ccccc3)C(=O)N(C)c3ccc(OC)cc3)C(=O)C2)cc1,1.48 µM,9.11,13.5 µM,–
COc1ccc(N(C)C(=O)[C@H](Cc2cc(F)cc(F)c2)NC(=O)CN2CCN(CC(=O)N[C@@H](Cc3cc(F)cc(F)c3)C(=O)N(C)c3ccc(OC)cc3)C(=O)C2)cc1,–,–,–,Activity [12]: 86.6%; Activity [13]: 0.6%; t1/2 [4]: 48 s
CN(C(=O)[C@H](Cc1ccccc1)NC(=O)CN1CCN(CC(=O)N[C@@H](Cc2ccccc2)C(=O)N(C)c2ccccc2)C(=O)C1)c1ccccc1,> 32.6 µM,–,32.6 µM,–
COc1ccc(N(C)C(=O)[C@H](Cc2ccccc2)NC(=O)CN2CCN(CC(=O)N[C@@H](Cc3ccccc3)C(=O)N(C)c3ccccc3)C(=O)C2)cc1,≥ 3.37 µM,–,21.7 µM,–
